Among the data in the METLIN SMRT retention time set (Domingo-Almenara et al. 2019) are RP-LC retention time values, retold here.

A short description of the data set: gradient 5% acetonitrile 3 min, to 50% in 2 min, to 85% in 15 min, held 3 min, 100 µL/min. Particulars: column: Zorbax Extend-C18 2.1 x 50 mm; eluents: water / acetonitrile, 0.1% formic acid. In outline: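 Each retention time is based on an adduct peak selected computationally and verified by manual inspection. Measurements used HPLC–quadrupole time-of-flight mass spectrometry in positive and negative ionization mode on mixtures of ~100 pure standards. Chromatography ran on a Zorbax Extend-C18 column (2.1 × 50 mm, 1.8 μm) at 100 μL/min with water and acetonitrile, each containing 0.1% formic acid, and dead and dwell volumes of 40 μL and 900 μL.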
As for `N#Cc1cccc(NC(=O)CSc2nc(N3CCc4ccccc4C3)nc3ccccc23)c1`, the RP-LC retention time came out at 862 s.

As for `COc1ccc(-c2c(C)noc2NC(C)=O)cc1S(=O)(=O)NCC(C)c1ccccc1` (stereo unspecified), the RP-LC retention time was determined as 838 s.

On to `Cc1ccc(NC(=O)N2CCC(CCNC(=O)C3(c4ccccc4)CC3)CC2)cc1`, for which the RP-LC retention time came out at 923 s.

The molecule `CCc1ccc(S(=O)(=O)c2ccccc2)cc1S(=O)(=O)NCCCN(C)C` showed an RP-LC retention time of 687 s.

On to `CC(C)CCNC(=O)c1nn(-c2ccc(F)cc2)nc1CO`, for which the RP-LC retention time was found to be 984 s.

Consider `COc1cc(OC)c(NC(=O)Nc2cc(C)on2)cc1Cl`, for which the RP-LC retention time stood at 865 s.

The molecule `Cc1ccc(CNC(=O)N2CCN(Cc3nc4cc(-c5ccccc5)ccc4o3)CC2)cc1` showed an RP-LC retention time of 854 s.

Molecule `Cc1nc(CC(=O)Nc2nc(-c3ccc(F)cc3)cs2)cs1` had an RP-LC retention time of 863 s.

Regarding `COc1ccc(CNC(=O)N2C[C@@H]3C[C@H]2C[C@@H]3NS(=O)(=O)c2ccccc2)cc1`, the RP-LC retention time amounted to 764 s.

`O=C(Nc1cnc(-c2ccc(F)cc2)nc1)c1ccc(F)cc1` registered an RP-LC retention time of 1000 s.

As to `O=C(Cn1nc2n(c1=O)CCCCC2)Nc1ccc(F)c(Cl)c1`, the RP-LC retention time was 729 s.

`O=C(C(=O)N1CCN(c2ccccc2)CC1)c1c[nH]c2ccccc12` registered an RP-LC retention time of 845 s.

With `CCC(C)NC(=O)C1CCN(S(=O)(=O)c2ccc3c(c2)sc(=O)n3C)CC1` (stereo unspecified), the RP-LC retention time turned out to be 757 s.

`Nc1nc(Nc2ccc(F)cc2)nc2cccc(F)c12` registered an RP-LC retention time of 627 s.

In turn, `CC1CN(C(=O)CCC(=O)NCCCN2CCN(C3CCCCC3)CC2)c2ccccc2O1` (stereo unspecified) had an RP-LC retention time of 602 s.

The molecule `COCCCNC(=O)c1ccc(-n2nc(C)c3c2CC(C)(C)CC3=O)cc1` showed an RP-LC retention time of 711 s.

`CC(=O)N1c2ccc(S(=O)(=O)N3CCCCCC3)cc2CC1C(=O)NCCN(C)C` (stereo unspecified): the RP-LC retention time was 637 s.

In turn, `COCCOCC1CCN(S(=O)(=O)c2ccc(C(F)(F)F)cc2)CC1` returned an RP-LC retention time of 937 s.

In turn, `COc1ccc(-c2ncc3c(=O)n(CC(=O)N4CCCC4)c(=O)n(C)c3n2)cc1` registered an RP-LC retention time of 815 s.

The molecule `CCCS(=O)(=O)N1CCC(c2noc(-c3ccncc3)n2)C1` (stereo unspecified) registered an RP-LC retention time of 751 s.

Molecule `Cc1ccc(N2CC(c3noc(-c4sccc4C)n3)CC2=O)cc1` (stereo unspecified) registered an RP-LC retention time of 1040 s.

Regarding `Cc1ccc(C(=O)NCC(=O)Nc2nc3ccccc3[nH]2)c(C)c1`, the RP-LC retention time was 639 s.

Molecule `CCCNC(=O)N1CC(c2nc(C)no2)C2(CCOCC2)C1` (stereo unspecified) registered an RP-LC retention time of 634 s.

In the case of `CCOC(=O)c1c(C)c(C(=O)OCC)n(C)c1C`, the RP-LC retention time worked out at 1080 s.

The molecule `COc1ccc2c(c1)C1(CCN(C(=O)NCc3ccc(F)cc3)C1)C(=O)N2C` (stereo unspecified) had an RP-LC retention time of 755 s.

Molecule `Cc1nc(-c2ccc(C(=O)NCc3ccc4c(c3)OCO4)cc2)cs1` displayed an RP-LC retention time of 844 s.

`CC(C)OCCCNC(=O)C1CCCN(S(=O)(=O)c2ccc3c(ccn3C)c2)C1` (stereo unspecified) returned an RP-LC retention time of 720 s.

For `Cc1nc(CCNS(=O)(=O)c2ccc(Cl)c(C)c2)no1`, the RP-LC retention time was 812 s.

Molecule `CCC(=O)Oc1ccc(N2C(=O)CCC2=O)cc1` showed an RP-LC retention time of 671 s.

Turning to `O=C(NCC1CCCO1)NC1CC(=O)N(c2ccc(Cl)cc2)C1` (stereo unspecified), the RP-LC retention time is 634 s.

`COc1ccc(CCc2nc3nccc(-c4cccc(OC)c4)n3n2)cc1` had an RP-LC retention time of 879 s.

`Cc1ccc(CNC(=O)Cc2nnc(-c3ccc4ncccc4c3)o2)cc1`: the RP-LC retention time is 832 s.

Turning to `COC(=O)c1ccc(Cn2cnc3c(-c4cccc(F)c4)csc3c2=O)o1`, the RP-LC retention time turned out to be 957 s.

Molecule `CCCNC(=O)C1CCCN(c2nc3ncn(CC(=O)Nc4cc(F)ccc4F)c(=O)c3s2)C1` (stereo unspecified) showed an RP-LC retention time of 716 s.

Take `Cc1cc(C)c(S(=O)(=O)N2CCC[C@@H]2C(=O)NCCc2csc(C)n2)c(C)c1`: the RP-LC retention time turned out to be 814 s.

Regarding `Cc1ccccc1NC(=O)c1cc(C)n2nc(-c3ccsc3)cc2n1`, the RP-LC retention time came to 1240 s.

As to `COc1cc(OC)c(NC(=O)N(C)CCc2noc(-c3ccc(F)cc3)n2)cc1Cl`, the RP-LC retention time was determined as 943 s.

For `CCOc1ccc(C(C)NC(=O)C2CCN(c3cncnc3N3CCOCC3)CC2)cc1` (stereo unspecified), the RP-LC retention time was found to be 649 s.

Molecule `CCN(CC)S(=O)(=O)c1c(C)nc2sc(C)nn12` showed an RP-LC retention time of 760 s.

`Cc1noc2ncn(CC(=O)NCc3ccc(Cl)cc3)c(=O)c12` displayed an RP-LC retention time of 769 s.

Molecule `COc1cccc(C2Cn3nnc(-c4nc(-c5ccc(C)c(C)c5)no4)c3CO2)c1` (stereo unspecified) returned an RP-LC retention time of 1270 s.

Consider `CC(C)(C)NC(=O)NCC1CC(=O)N(c2ccc(Cl)cc2)C1` (stereo unspecified), for which the RP-LC retention time turned out to be 706 s.

For the molecule `O=C(O)C1c2ccccc2CC(=O)N1Cc1ccccc1` (stereo unspecified), the RP-LC retention time worked out at 723 s.

Molecule `CN(Cc1ccccc1)C(=O)c1cc2c(=O)oc3ccccc3c2n1C` registered an RP-LC retention time of 884 s.

The molecule `O=C(NCCc1csc(C2CCCN(C(=O)C3CCCC3)C2)n1)C1CC1` (stereo unspecified) registered an RP-LC retention time of 696 s.

`COc1ccc(-c2cc3c(=O)n(CC(=O)NCC4CCCO4)ncn3n2)cc1` (stereo unspecified) came in with an RP-LC retention time of 720 s.

Consider `CC(C)c1ccc(N2C(=O)C3N=NN(Cc4nc(-c5ccc(Br)cc5)no4)C3C2=O)cc1` (stereo unspecified), for which the RP-LC retention time was determined as 1220 s.

The molecule `Cc1cc2nn(CC(=O)N3CCOCC3)c(=O)n2c(-c2cccc(Cl)c2)n1` yielded an RP-LC retention time of 708 s.

On to `CC1=NS(=O)(=O)N(C)C=C1C(=O)OCc1ccccc1`, for which the RP-LC retention time worked out at 882 s.

Consider `COc1cccc(NC(=O)C2CCN(c3cc(N4CCCCC4)ncn3)CC2)c1`, for which the RP-LC retention time turned out to be 708 s.

`O=C(Nc1cccc(Cl)c1)C1CCN(c2nccnc2Sc2ccccc2)CC1` displayed an RP-LC retention time of 1170 s.

Molecule `O=C(c1nc(-c2cccc(F)c2)n2c1CCCCC2)N1CCN(c2ncccn2)CC1` had an RP-LC retention time of 724 s.

On to `CC(=O)N1CCc2cc(-c3ccc(C(=O)N4CCN(c5ccccn5)CC4)cc3)ccc21`, for which the RP-LC retention time came out at 611 s.

Molecule `O=C(Cn1nc2c(N3CCCCCC3)nccn2c1=O)Nc1ccc2c(c1)OCCO2` had an RP-LC retention time of 668 s.

`Cc1cccnc1NC(=O)C1CCCN(c2ccc3cc(S(=O)(=O)N4CCCC4)ccc3n2)C1` (stereo unspecified) had an RP-LC retention time of 624 s.

`Cc1ccc(-c2nc3ccccc3[nH]2)cc1NC(=O)c1ccco1` returned an RP-LC retention time of 625 s.

On to `Nc1ncnc2c1c(-c1cnc3[nH]ccc3c1)nn2C1CCCC1`, for which the RP-LC retention time was found to be 709 s.

`COc1ccccc1C(=O)Nc1nc(-c2ccc3c(c2)NC(=O)CO3)c(C)s1` displayed an RP-LC retention time of 889 s.

`CCN1C(=O)c2cc(S(=O)(=O)Nc3ccccc3C)ccc2Oc2cccnc21` returned an RP-LC retention time of 1000 s.

Consider `Cc1ccc(C)c(-c2csc(Cc3nc(-c4ccc5c(c4)OCO5)no3)n2)c1`, for which the RP-LC retention time was 1260 s.

The molecule `COc1cccc(NC(=O)Nc2nccn(-c3ccc(F)c(F)c3)c2=O)c1` showed an RP-LC retention time of 927 s.

In turn, `CCCn1cc(S(=O)(=O)Nc2cccc(F)c2C)c2cccnc21` came in with an RP-LC retention time of 861 s.

Molecule `COc1cc(NC(=O)CN2CCN(Cc3ccc(C)cc3)C(=O)C2=O)cc(OC)c1OC` gave an RP-LC retention time of 709 s.

In turn, `CCC(=O)N1CCc2cc(C(N)=O)ccc21` displayed an RP-LC retention time of 613 s.

Turning to `CN(CCc1noc(C2CN(Cc3cc(Cl)ccc3F)C2)n1)S(C)(=O)=O`, the RP-LC retention time turned out to be 608 s.

`Cc1nn(CC(=O)N2CCN(c3ccc(Cl)cc3)CC2)c(=O)c2noc(C)c12` yielded an RP-LC retention time of 821 s.

For `CCCCCOc1ccc(C(=O)CCNC(Cc2c[nH]c3ccccc23)C(=O)O)cc1` (stereo unspecified), the RP-LC retention time was found to be 787 s.

As to `Cc1ccc2nc(NC(=O)C3CC(=O)N(c4n[nH]c5cccc(F)c45)C3)sc2c1` (stereo unspecified), the RP-LC retention time is 812 s.

Molecule `Cc1nc2cc(-c3noc(Cc4cccc(C(F)(F)F)c4)n3)ccc2o1` came in with an RP-LC retention time of 1080 s.

Molecule `CC(C)CCNC(=O)C1(C)CCc2ccccc2C(=O)N1CCc1c[nH]c2ccccc12` (stereo unspecified) registered an RP-LC retention time of 950 s.

Regarding `CCCCS(=O)(=O)NCC#CCN1CCc2ccccc2C1`, the RP-LC retention time worked out at 564 s.

Turning to `CCOC(=O)C1CCN(Cc2nc(-c3ccc(N4CCCC4)nc3)no2)CC1`, the RP-LC retention time was determined as 572 s.

For `NS(=O)(=O)c1ccc(Nc2ccccc2)c([N+](=O)[O-])c1`, the RP-LC retention time was 856 s.

For the molecule `Cc1nc(-c2cn(C)c3ncccc23)sc1C(=O)Nc1ccccc1F`, the RP-LC retention time came out at 922 s.

`Cc1ccc(-c2noc(-c3nn(-c4cccc(F)c4)ccc3=O)n2)cc1` had an RP-LC retention time of 956 s.

As for `O=C(Nc1cccc(Cl)c1)Nn1cnnc1`, the RP-LC retention time is 691 s.

`O=C(Nc1ccccc1)C1CCCN(S(=O)(=O)c2cc(-c3noc(C4CCCC4)n3)cs2)C1` (stereo unspecified) came in with an RP-LC retention time of 1220 s.

`Cc1nc(-c2ccncc2)nc2c1CCC(=O)N2Cc1ccccn1` returned an RP-LC retention time of 559 s.

Molecule `Cc1cc(F)ccc1N1C(=O)CN(S(C)(=O)=O)CC1(C)C(=O)NCc1ccc(F)cc1` (stereo unspecified) showed an RP-LC retention time of 814 s.

On to `O=C1NC(=S)S/C1=C\c1cc(Br)ccc1OCc1ccccc1Br`, for which the RP-LC retention time amounted to 1270 s.

In the case of `CCNC(=O)C1CCCN(c2nc3ncn(CC(=O)Nc4ccccc4OCC)c(=O)c3s2)C1` (stereo unspecified), the RP-LC retention time worked out at 700 s.
